Source: PubChem BioAssay AID1996
Converted amounts (≈) assume the structure as drawn.

settings: buffer; pH 7.4; 200.0 µM

Row | SMILES | solubility kinetic
1 | COc1ccccc1C(=O)C1CCCN(C(=O)c2ccco2)C1 (stereo not given) | > 47 µg/mL
2 | COC(=O)c1cccc(NC(=O)c2ccccc2)c1 | 35.7 µg/mL (≈ 140 µM)
3 | O=S(=O)(c1cc(F)ccc1F)N1CCN(c2ccccn2)CC1 | 18.9 µg/mL (≈ 55.7 µM)
4 | Nc1ccc2nc(-c3ccccc3)cnc2c1 | 26.6 µg/mL (≈ 120 µM)
5 | CC(C)c1ccc2nc(SCC(=O)NCC3CCCO3)c(C#N)cc2c1 (stereo not given) | 2.4 µg/mL (≈ 6.5 µM)
6 | Cl.c1ccc(CCNCc2cccs2)cc1 | 32.6 µg/mL
7 | CC(C(=O)N1CCN=C1c1ccccc1)N1C(=O)c2ccccc2C1=O (stereo not given) | > 52.1 µg/mL
8 | CC(NC1c2ccccc2-c2ccccc21)c1ccccc1 (stereo not given) | < 0.6 µg/mL
9 | CC(C)(C)CC(=O)Nc1cc2c3c(c1)CCN3C(=O)CC2 | > 43 µg/mL
10 | O=C(O)CC(NS(=O)(=O)c1ccc2c(c1)OCCO2)c1ccccc1[N+](=O)[O-] (stereo not given) | > 61.3 µg/mL
11 | COc1nc(C)ccc1-c1noc(-c2cccs2)n1 | 2.5 µg/mL (≈ 9.15 µM)
12 | COc1ccc(CNC(=O)Nc2ccccc2)cc1 | 13.5 µg/mL (≈ 52.7 µM)
13 | COc1cc2c(cc1OC)C(C)N(C(=O)Nc1cc(C)cc(C)c1)CC2 (stereo not given) | 2.7 µg/mL (≈ 7.62 µM)
14 | COc1ccc(N=Cc2nc(-c3ccccc3)oc2OC(C)=O)cc1 | 1.6 µg/mL (≈ 4.76 µM)
15 | Cc1nc2nc(SCC(=O)c3ccccc3)[nH]c2cc1Br | < 0.3 µg/mL
16 | CCc1ccccc1NC(=O)COC(=O)c1cccs1 | 2.9 µg/mL (≈ 10 µM)
17 | Cc1cnc(NC(=O)c2ccc(Cl)nc2)s1 | 6.6 µg/mL (≈ 26 µM)
18 | CN(C)C(=O)COc1ccc2c3c(c(=O)oc2c1)CCCC3 | 44.6 µg/mL (≈ 148 µM)
19 | CCN1C(=O)CC(NNC(=O)c2ccccc2)C1=O (stereo not given) | > 39.2 µg/mL
20 | CCN(C(=O)CSc1nc2ccccc2c(=O)n1-c1cccc(C)c1)C1CCS(=O)(=O)C1 (stereo not given) | 2.8 µg/mL (≈ 5.94 µM)
21 | CN(Cc1ccccc1)C(=O)c1ccc2c(c1)S(=O)(=O)N=C1CCCCCN12 | > 59.6 µg/mL
22 | O=C(COC(=O)c1ccccc1Br)NC1CCCC1 | > 48.9 µg/mL
23 | CCOC(=O)CSc1nnc(CNC(=O)c2cccc(C)c2)n1C | > 52.3 µg/mL
24 | COC(=O)C1CC(=O)N(Cc2ccccc2)C1 (stereo not given) | > 35 µg/mL

Row | SMILES | solubility kinetic
25 | Cc1ccc(Nc2nc(N)c([N+](=O)[O-])c(NCc3ccccc3)n2)cc1 | 0.3 µg/mL (≈ 0.856 µM)
26 | c1ccc(C(NCCNC(c2ccccc2)c2ccccc2)c2ccccc2)cc1 | 1.7 µg/mL (≈ 4.33 µM)
27 | COc1ccc2[nH]c(=O)c(C(=O)O)cc2c1 | > 32.9 µg/mL
28 | CCc1cccc(C)c1NC(=O)CN1C(=O)NC(C)(CCC(C)C)C1=O (stereo not given) | > 53.9 µg/mL
29 | Cc1ccc(C(=O)N2CCN(CCNC(=O)C(=O)Nc3ccc(Cl)cc3)CC2)cc1 | 2.6 µg/mL (≈ 6.06 µM)
30 | O=C1NC(=S)N/C1=C/c1cccc2ccccc12 | 1.7 µg/mL (≈ 6.68 µM)
31 | Cc1ccc(C#N)c(SCCN2CCCCC2)n1 | 32.4 µg/mL (≈ 124 µM)
32 | N#Cc1c(Cl)nc2c(c1C#N)CCCC2 | > 32.6 µg/mL
33 | CC(=O)c1sc(-c2ccccc2)nc1C | 13.9 µg/mL (≈ 64 µM)
34 | COc1cccc(N(CC(=O)N2CCOCC2)S(C)(=O)=O)c1 | > 49.3 µg/mL
35 | O=C(O)C1CCC(N2C(=O)c3cccc([N+](=O)[O-])c3C2=O)CC1 (stereo not given) | > 47.7 µg/mL
36 | NS(=O)(=O)c1ccc(CNC(=S)NC2CCCC2)cc1 | 46.9 µg/mL (≈ 150 µM)
37 | CSc1ccccc1C(=O)NCc1ccccc1C | > 40.7 µg/mL
38 | Cc1ccc(NS(=O)(=O)c2cccc(C(=O)N3CCCCC3)c2)cc1 | > 53.8 µg/mL
39 | Cc1ccnc(NC(=O)CCC(=O)c2cc(C)sc2C)c1 | 3.7 µg/mL (≈ 12.2 µM)
40 | O=C(OCC(=O)N1CCOCC1)c1ccc(F)cc1Cl | > 45.3 µg/mL
41 | O=C(Nc1ccc2c(c1)COC2=O)c1ccc(Cl)c(Cl)c1 | 3.5 µg/mL (≈ 10.9 µM)
42 | COCCNc1nc(N)c([N+](=O)[O-])c(NC2CCCCC2)n1 | 7.2 µg/mL (≈ 23.2 µM)
43 | Cc1nc(C)c(C(=O)Nc2cccc(F)c2)s1 | > 37.5 µg/mL
44 | CC1Cc2ccccc2N1C(=O)C1CC(=O)N(c2ccccc2)C1 (stereo not given) | 44.9 µg/mL (≈ 140 µM)
45 | CCS(=O)(=O)N1CCC(C(=O)Oc2ccccc2)CC1 | 39.1 µg/mL (≈ 131 µM)
46 | CCOc1cc(C(=O)N=c2sccn2C)ccc1OC(F)F | 45.4 µg/mL (≈ 138 µM)
47 | CN(CC(=O)N1CCCC1)S(=O)(=O)c1cccc(Cl)c1 | > 47.5 µg/mL
48 | O=C(CNC(=O)c1ccc(F)cc1)Nc1ccccc1C(F)(F)F | 16.2 µg/mL (≈ 47.6 µM)

Row | SMILES | solubility kinetic
49 | COc1ccccc1OCC(=O)Nc1ncc(C)s1 | 41.2 µg/mL (≈ 148 µM)
50 | COc1ccc(C(=O)NCCNC(=O)c2ccc(OC)cc2)cc1 | 2.9 µg/mL (≈ 8.83 µM)
51 | O=C(COc1ccccc1Br)NC1CC1 | > 40.5 µg/mL
52 | O=C(NC(=S)Nc1ccccc1CO)C1CCCCC1 | > 43.9 µg/mL
53 | CC1CCN(C2(O)C(=O)Nc3ccc(Cl)cc32)CC1 (stereo not given) | > 42.1 µg/mL
54 | CCSc1nsc(NC(=O)Nc2cccc(C(C)=O)c2)n1 | 1.6 µg/mL (≈ 4.96 µM)
55 | COc1ccccc1CNC(=O)COc1ccccc1C | 38.4 µg/mL (≈ 135 µM)
56 | CC(C)[C@H](NC(=O)c1ccccc1F)C(=O)NC1CCCCC1 | > 48.1 µg/mL
57 | FC(F)(F)c1cccc(NC(=S)N2CCCC2)c1 | > 41.1 µg/mL
58 | O=C1CCCN1CCCNS(=O)(=O)c1ccccc1 | > 42.4 µg/mL
59 | O=C(CN1C(=O)NC2(CCCc3ccccc32)C1=O)NCCc1ccc(F)cc1 (stereo not given) | > 59.3 µg/mL
60 | CC(C)CCN1C(=O)c2ccc(C(=O)OCC(=O)N(CC(C)C)C3CCS(=O)(=O)C3)cc2C1=O (stereo not given) | 46.8 µg/mL (≈ 95 µM)
61 | COc1cccc(NC(=O)c2nc(S(C)(=O)=O)ncc2Cl)c1 | 33.6 µg/mL (≈ 98.3 µM)
62 | O=C1Nc2ccc(S(=O)(=O)NCC3CCCO3)c3cccc1c23 (stereo not given) | > 49.9 µg/mL
63 | N#CCCN(Cc1ccccc1)C(=S)Nc1ccc(F)cc1 | 28.8 µg/mL (≈ 91.9 µM)
64 | Cc1[nH]c2ccc(C(=O)NCc3ccccn3)cc2c1C | > 41.9 µg/mL
65 | CN(C)CCOC1c2ccccc2-c2ccccc21.O=C(O)C(=O)O | > 51.5 µg/mL
66 | O=C(CSc1nnc(-c2ccccn2)o1)Nc1ccc(F)cc1 | > 49.6 µg/mL
67 | Cc1cc(=O)cc(C)n1-c1ccc(Cl)cc1 | 34.8 µg/mL (≈ 149 µM)
68 | CCCOc1ccc(N2C(=O)CC(NCC#N)C2=O)cc1 (stereo not given) | 41 µg/mL (≈ 143 µM)
69 | O=C(N/C(=C/c1cccnc1)C(=O)N1CCOCC1)c1ccccc1Cl | > 55.8 µg/mL
70 | CC(=O)Nc1ccc2sc(NC(=O)CN3CCOCC3)nc2c1 | > 50.2 µg/mL
71 | CCN1C(=O)C(=O)N(CC(=O)Nc2cc(C)ccc2C)C1=O | > 45.5 µg/mL
72 | Cc1ccc(NC(=O)C2CCN(S(=O)(=O)c3cc([N+](=O)[O-])ccc3Cl)CC2)nc1 | 16 µg/mL (≈ 36.5 µM)

Row | SMILES | solubility kinetic
73 | COc1ccc(C(=O)NC(=S)N2CCOCC2)cc1OC | > 46.6 µg/mL
74 | COc1cccc(C(C)NC(=O)Cc2cccs2)c1 (stereo not given) | > 41.3 µg/mL
75 | COc1ccc2nc(SCC(=O)NCCc3ccccc3)[nH]c2c1 | > 51.2 µg/mL
76 | O=C(NCC(O)c1ccc([N+](=O)[O-])cc1)C1=COCCO1 (stereo not given) | > 44.1 µg/mL
77 | Cn1c(SCCc2ccc([N+](=O)[O-])cc2)nccc1=O | 25.9 µg/mL (≈ 88.9 µM)
78 | Cc1nnc(NS(=O)(=O)c2ccc(N)cc2)s1 | > 40.5 µg/mL
79 | S=C(Nc1ccc2[nH]ccc2c1)NC1CCCCC1 | 37 µg/mL (≈ 135 µM)
80 | COc1ccc(CCN(C)C2CC(=O)N(c3ccccc3)C2=O)cc1OC (stereo not given) | > 55.3 µg/mL
81 | COC(=O)[C@@H](N)CS.Cl | > 25.7 µg/mL
82 | CN1CC(C#N)C2(O)c3ccccc3CCC2C1 (stereo not given) | > 36.3 µg/mL
83 | COc1ccc(C(=O)OCC(=O)N2CCN(C(=O)c3ccco3)CC2)cc1OC | > 60.4 µg/mL
84 | CCOC(=O)c1csc(NC(C)=O)n1 | > 32.1 µg/mL
85 | Cc1ccccc1-c1noc(CNC(=O)c2ccco2)n1 | > 42.5 µg/mL
86 | O=c1c2ccccc2nc(CNCC2CCCO2)n1-c1ccc(F)cc1 (stereo not given) | 44.9 µg/mL (≈ 127 µM)
87 | CCCN(Cc1ccco1)S(=O)(=O)c1ccc(OC)c(OC)c1 | 41.3 µg/mL (≈ 122 µM)
88 | CC(C)c1cc(O)c(-c2ccccc2)c(=O)n1-c1ccc(Cl)cc1 | < 0.7 µg/mL
89 | COc1ccc(/C=C(\C)C(=O)c2c(C)cc(C)[nH]c2=O)cc1 | 42.9 µg/mL (≈ 144 µM)
90 | CC(O)CNc1nc2c(c(=O)n(Cc3ccccc3)c(=O)n2C)n1C (stereo not given) | > 51.5 µg/mL
91 | Cc1ccc(NS(=O)(=O)c2ccc(NC(=O)c3ccccc3C(=O)O)cc2)cc1C | > 63.7 µg/mL
92 | O=C(Cc1ccc(F)cc1)Nc1nccs1 | 34.4 µg/mL (≈ 146 µM)
93 | Cc1cc2nc(-c3ccc(=O)[nH]c3)n(C)c2cc1C | 14.1 µg/mL (≈ 55.7 µM)
94 | COc1cc(N=c2ssnc2Cl)c(OC)cc1Cl | 15.6 µg/mL (≈ 48.3 µM)
95 | CC(=O)c1ccc(NC(=O)CCNC(=O)c2ccc(Cl)cc2)cc1 | 5.4 µg/mL (≈ 15.7 µM)
96 | CC(=O)N[C@@H](Cc1ccc(OC(F)(F)F)cc1)C(=O)O | > 43.7 µg/mL

Row | SMILES | solubility kinetic
97 | CS(=O)(=O)c1ccc(-c2csc(-c3cccnc3)n2)cc1 | 5.6 µg/mL (≈ 17.7 µM)
98 | O=S(=O)(NCCN1CCOCC1)c1ccc2ccccc2c1 | > 48.1 µg/mL
99 | COc1ccc(-c2nc3ccccc3o2)cc1OC | < 0.5 µg/mL
100 | CN1C(=S)SC(/[N+]([O-])=C/c2ccc(Cl)cc2)C1(C)C (stereo not given) | 15.7 µg/mL (≈ 49.9 µM)
101 | CNS(=O)(=O)c1cccc(C(=O)OCC(=O)Nc2nc(OC)cc(OC)n2)c1 | 15 µg/mL (≈ 36.5 µM)
102 | O=C(CN1C(=O)NC2(CCCCCC2)C1=O)NCc1ccccc1Cl | > 54.6 µg/mL
103 | Cc1ccc2nc(COC(=O)c3ccc(Cl)nc3)cc(=O)n2c1 | 7.3 µg/mL (≈ 22.1 µM)
104 | CCCCNC(=O)c1cc(S(=O)(=O)N2CCCCC2)oc1C | 24 µg/mL (≈ 73.1 µM)
105 | CC(=O)N/C(=C\c1ccccc1)C(=O)OCc1ccc(F)cc1 | 43.4 µg/mL (≈ 139 µM)
106 | O=[N+]([O-])c1ccc(C(O)CSC(=S)N2CCCCC2)cc1 (stereo not given) | 2.6 µg/mL (≈ 7.96 µM)
107 | COCCn1c(C)cc(C(=O)COC(=O)c2cccnc2SC)c1C | 5.2 µg/mL (≈ 14.3 µM)
108 | CCN1CCN(c2ccc(N=Cc3ccccc3O)cc2)CC1 | 40.7 µg/mL (≈ 132 µM)
109 | O=S(=O)(Nc1ccccn1)c1cccs1 | > 36 µg/mL
110 | CCOc1ccc(C(C)NC(=S)NCc2ccc(F)cc2)cc1 (stereo not given) | 2.8 µg/mL (≈ 8.42 µM)
111 | CCC1Oc2ccccc2N(CC(=O)NCC2CCCO2)C1=O (stereo not given) | 44.5 µg/mL (≈ 140 µM)
112 | O=[N+]([O-])c1ccc(C2NS(=O)(=O)N=C3CCCCCN32)cc1 (stereo not given) | > 48.7 µg/mL
113 | CNc1ccc(Oc2c(F)c(F)nc(F)c2F)cc1 | 6 µg/mL (≈ 22 µM)
114 | Cc1cc(C)nc(NC(=O)Cc2ccc(Cl)cc2)c1 | 8.6 µg/mL (≈ 31.3 µM)
115 | CCc1c(C)sc(NC(=O)c2ccco2)c1C#N | 17 µg/mL (≈ 65.3 µM)
116 | Cc1cc(Cl)ccc1OCC(=O)Nc1ccc(CN2CCOCC2)cc1 | 41.3 µg/mL (≈ 110 µM)
117 | CCC(Sc1ncccc1Nc1ccccn1)C(=O)O (stereo not given) | > 43.4 µg/mL
118 | CCOc1ccc(C(=O)NCCN2CCOCC2)cc1 | > 41.8 µg/mL
119 | S=C(NCCc1ccccc1)N1CCN(C2CCCCC2)CC1 | 16.6 µg/mL (≈ 50.1 µM)
120 | CCN(C(=O)CN1C(=O)CN(C)C1=O)c1cccc2ccccc12 | > 48.8 µg/mL
